{"source": "paper PMC9609330", "key": {"[1]": {"system": "AT11-L2 (DNA, G4) TGGTGGTGGTTGTTGTTGGTGGTGGTGGT", "assay": "CD melting", "settings": "K+ 100 mM, 10 mM lithium cacodylate pH 7.2, 10 µM DNA, 2.0 eq. ligand (20 µM)"}, "[2]": {"system": "5′-Cy5-AT11-L2 (DNA, G4) TGGTGGTGGTTGTTGTTGGTGGTGGTGGT", "assay": "fluorescence titration (Cy5 quenching), Hill fit", "settings": "K+ 100 mM, 10 mM lithium cacodylate, 1 µM DNA, apparent KD"}, "[3]": {"system": "5′-Cy5-AT11-L2 (DNA, G4) TGGTGGTGGTTGTTGTTGGTGGTGGTGGT", "assay": "fluorescence titration (Cy5 quenching), Michaelis–Menten fit", "settings": "K+ 100 mM; 10 mM lithium cacodylate; 1 µM DNA; apparent KD"}, "[4]": {"target": "T1, nucleolin RBD1,2 (NCL RBD1,2) (UniProt P19338 307-466)", "T1 sequence (P19338 307-466)": "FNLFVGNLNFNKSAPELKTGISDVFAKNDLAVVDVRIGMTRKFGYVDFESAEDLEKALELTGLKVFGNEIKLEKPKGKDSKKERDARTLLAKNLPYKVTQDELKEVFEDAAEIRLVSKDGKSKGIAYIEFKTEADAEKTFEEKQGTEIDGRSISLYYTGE", "assay": "fluorescence titration; PDS (pre-formed G4/ligand complex); Oligonucleotide annealed in 10 mM lithium cacodylate pH 7.2, 100 mM KCl (95 °C 10 min, then ice 10 min); titration temperature not given in the material", "settings": "protein: recombinant; label: 5'-Cy5; intramolecular G4, parallel in 100 mM KCl"}, "[5]": {"target": "T1, nucleolin RBD1,2 (NCL RBD1,2)", "assay": "fluorescence titration; 360A (pre-formed G4/ligand complex); Oligonucleotide annealed in 10 mM lithium cacodylate pH 7.2, 100 mM KCl (95 °C 10 min, then ice 10 min); titration temperature not given in the material", "settings": "protein: recombinant; label: 5'-Cy5; intramolecular G4, parallel in 100 mM KCl"}, "[6]": {"target": "T1, nucleolin RBD1,2 (NCL RBD1,2)", "assay": "fluorescence titration; PhenDC3 (pre-formed G4/ligand complex); Oligonucleotide annealed in 10 mM lithium cacodylate pH 7.2, 100 mM KCl (95 °C 10 min, then ice 10 min); titration temperature not given in the material", "settings": "protein: recombinant; label: 5'-Cy5; intramolecular G4, parallel in 100 mM KCl"}, "[7]": {"target": "T1, nucleolin RBD1,2 (NCL RBD1,2)", "assay": "fluorescence titration; BRACO-19 (pre-formed G4/ligand complex); Oligonucleotide annealed in 10 mM lithium cacodylate pH 7.2, 100 mM KCl (95 °C 10 min, then ice 10 min); titration temperature not given in the material", "settings": "protein: recombinant; label: 5'-Cy5; intramolecular G4, parallel in 100 mM KCl"}, "[8]": {"target": "T1, nucleolin RBD1,2 (NCL RBD1,2)", "assay": "fluorescence titration; TMPyP4 (pre-formed complex; TMPyP4 excess disrupts the G4); Oligonucleotide annealed in 10 mM lithium cacodylate pH 7.2, 100 mM KCl (95 °C 10 min, then ice 10 min); titration temperature not given in the material", "settings": "protein: recombinant; label: 5'-Cy5; intramolecular G4, parallel in 100 mM KCl"}}}
{"molecule": "CN(C)c1ccc(Nc2c3ccc(NC(=O)CCN4CCCC4)cc3nc3cc(NC(=O)CCN4CCCC4)ccc23)cc1", "values": [{"measurement": "ΔTm", "setting": "[1]", "result": 22.5, "unit": "°C"}, {"measurement": "KD", "setting": "[2]; Hill n = 0.9", "result": "5600 ± 2000", "unit": "nM"}]}
{"molecule": "C[n+]1cc(NC(=O)c2ccc3ccc4ccc(C(=O)Nc5cc6ccccc6[n+](C)c5)nc4c3n2)cc2ccccc21", "values": [{"measurement": "ΔTm", "setting": "[1]", "result": 14.9, "unit": "°C"}, {"measurement": "KD", "setting": "[2]; Hill n = 2.2", "result": "1400 ± 85", "unit": "nM"}]}
{"molecule": "C[n+]1ccc(-c2c3nc(c(-c4cc[n+](C)cc4)c4ccc([nH]4)c(-c4cc[n+](C)cc4)c4nc(c(-c5cc[n+](C)cc5)c5ccc2[nH]5)C=C4)C=C3)cc1", "values": [{"measurement": "ΔTm", "setting": "[1]; unfolds G4 at 3.5 eq.", "result": 22.9, "unit": "°C"}, {"measurement": "KD", "setting": "[2]; Hill n = 1.2", "result": "1300 ± 150", "unit": "nM"}]}
{"molecule": "C[n+]1cc(NC(=O)c2cccc(C(=O)Nc3cc4ccccc4[n+](C)c3)n2)cc2ccccc21", "values": [{"measurement": "ΔTm", "setting": "[1]", "result": 6.5, "unit": "°C"}, {"measurement": "KD", "setting": "[2]; Hill n = 0.6", "result": "31000 ± 60000", "unit": "nM"}]}
{"molecule": "NCCOc1cc(C(=O)Nc2cc(OCCN)c3ccccc3n2)nc(C(=O)Nc2cc(OCCN)c3ccccc3n2)c1", "values": [{"measurement": "ΔTm", "setting": "[1]", "result": 1.8, "unit": "°C"}, {"measurement": "KD", "setting": "[3]", "result": "14 ± 4.9", "unit": "nM"}]}
{"molecule": "TGGTGGTGGTTGTTGTTGGTGGTGGTGGT (structured_DNA)", "note": "[5'-Cy5-AT11-L2 G4]", "values": [{"measurement": "Kd", "setting": "[4]", "result": 63, "unit": "nM"}, {"measurement": "Kd", "setting": "[5]", "result": 6400, "unit": "nM"}, {"measurement": "Kd", "setting": "[6]", "result": 18, "unit": "nM"}, {"measurement": "Kd", "setting": "[7]", "result": 150, "unit": "nM"}, {"measurement": "Kd", "setting": "[8]", "result": 1.2, "unit": "nM"}]}
